Test results from US8263609B2, “Tetrahydro-β-carbolin-sulfonamide derivatives as 5-Ht6 ligands” (Laboratorios Del Dr. Esteve, S.A., priority 2005, dated 2012).

Columns and labels:
[1] = target: T1, 5HT6-human recombinant receptor (Homo sapiens, UniProt P50406); assay: Binding to Serotonin Receptor 5HT6 ([3H]-LSD radioligand displacement, HEK-293 cell membranes); details: [3H]-LSD 2.7 nM, HEK-293 membranes; for Ki: non-linear regression EBDA/LIGAND; for inhibition at 0.1 µM: compound at 10^−7 M, 60 min, 37° C.
T1 construct: purchased Receptor Biology; host or cells: HEK-293 cell membranes
T1 sequence (P50406 whole entry): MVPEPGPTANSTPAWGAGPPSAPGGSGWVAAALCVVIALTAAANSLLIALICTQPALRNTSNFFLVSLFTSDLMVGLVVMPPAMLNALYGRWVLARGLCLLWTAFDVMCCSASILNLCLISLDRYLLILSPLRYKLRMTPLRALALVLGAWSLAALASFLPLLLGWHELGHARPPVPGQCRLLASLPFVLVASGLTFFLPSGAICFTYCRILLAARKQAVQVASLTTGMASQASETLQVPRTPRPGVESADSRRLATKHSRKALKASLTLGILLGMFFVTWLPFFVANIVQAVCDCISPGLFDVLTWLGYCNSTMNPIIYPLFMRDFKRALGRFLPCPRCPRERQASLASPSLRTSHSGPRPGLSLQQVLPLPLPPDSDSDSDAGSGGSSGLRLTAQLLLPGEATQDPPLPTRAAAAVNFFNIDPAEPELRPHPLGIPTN
Procedure: Binding to Serotonin Receptor 5HT6
Cell membranes of HEK-293 cells expressing the 5HT6-human recombinant receptor were supplied by Receptor Biology. In said membranes the receptor concentration is 2.18 pmol/mg protein and the protein concentration is 9.17 mg/ml. The experimental protocol follows the method of B. L. Roth et al. [B. L. Roth et al., The Journal of Pharmacology and Experimental Therapeutics, 1994, 268, 1403] with the following slight changes. The respective part of the literature description is hereby incorporated by reference and forms part of the disclosure.
The commercial membrane is diluted (1:40 dilution) with the binding buffer: 50 mM Tris-HCl, 10 mM MgCl2, 0.5 mM EDTA (pH 7.4). The radioligand used is [^3H]-LSD at a concentration of 2.7 nM with a final volume of 200 μl. incubation is initiated by adding 100 μl of membrane suspension, (≈22.9 μg membrane protein), and is prolonged for 60 minutes at a temperature of 37° C. The incubation is ended by fast filtration in a Brandel Cell Harvester through fiber glass filters made by Schleicher & Schuell GF 3362 pretreated with a solution of polyethylenimine at 0.5%. The filters are washed three times with three milliliters of buffer Tris-HCl 50 mM pH 7.4. The filters are transferred to flasks and 5 ml of Ecoscint H liquid scintillation cocktail are added to each flask. The flasks are allowed to reach equilibrium for several hours before counting with a Wallac Winspectral 1414 scintillation counter. Non-specific binding is determined in the presence of 100 μM of serotonin. Tests were made in triplicate. The inhibition constants (Ki, nM) were calculated by non-linear regression analysis using the program EBDA/LIGAND described in Munson and Rodbard, Analytical Biochemistry, 1980, 107, 220, which is hereby incorporated by reference and forms part of the disclosure.

melting point [°C]	Structure (SMILES)	Ki [1] [nM]	inhibition at 0.1 µM [1] [%]
259 to 260	CN1CCc2c([nH]c3c(NS(=O)(=O)c4cccc5ccccc45)cccc23)C1	–	–
236 to 238	CN1CCc2c([nH]c3ccc(NS(=O)(=O)c4ccc(F)c5ccccc45)cc23)C1	–	–
259 to 260	Cc1c(S(=O)(=O)Nc2ccc3[nH]c4c(c3c2)CCN(C)C4)sc2ccc(Cl)cc12	–	–
238 to 240	CN1CCc2c([nH]c3c(NS(=O)(=O)c4cccc5nsnc45)cccc23)C1	–	–
241 to 242	CN1CCc2c([nH]c3ccc(NS(=O)(=O)c4cccc5c(N(C)C)cccc45)cc23)C1	–	–
245 to 247	CN1CCc2c([nH]c3cccc(NS(=O)(=O)c4ccc5c(Cl)cccc5c4)c23)C1	–	–
256 to 257	CN1CCc2c([nH]c3c(NS(=O)(=O)c4ccc5c(Cl)cccc5c4)cccc23)C1	–	–
255 to 260	CN1CCc2c([nH]c3ccc(NS(=O)(=O)c4ccc5ccccc5c4)cc23)C1c1ccccc1 (stereo not drawn) [Example 28, Naphthalene-2-sulfonic acid (2-methyl-1-phenyl-2,3,4,9-tetrahydro-1H-β-carbolin-6-yl)-amide]	–	–
245 to 246	CN1CCc2c([nH]c3ccc(NS(=O)(=O)c4cccc5ccccc45)cc23)C1	–	–
174 to 176	CCN1CCc2c([nH]c3ccc(NS(=O)(=O)c4ccc5ccccc5c4)cc23)C1	–	–
232 to 233	O=S(=O)(Nc1ccc2[nH]c3c(c2c1)CCN(CC(F)(F)F)C3)c1c(Cl)nc2sccn12	–	–
217 to 218	CN1CCc2c([nH]c3cccc(NS(=O)(=O)c4cccc5ccccc45)c23)C1	–	–
255 to 257	CN1CCc2c([nH]c3cc(NS(=O)(=O)c4csc5ccccc45)ccc23)C1	–	–
232 to 234	CN1CCc2c([nH]c3ccc(NS(=O)(=O)c4csc5ccccc45)cc23)C1c1ccccc1 (stereo not drawn) [Example 29, Benzo[b]thiophene-3-sulfonic acid (2-methyl-1-phenyl-2,3,4,9-tetrahydro-1H-β-carbolin-6-yl)-amide]	–	–
236 to 237	CN1CCc2c([nH]c3cccc(NS(=O)(=O)c4csc5ccccc45)c23)C1	–	–
165 to 166	CN1CCc2c([nH]c3ccc(NS(=O)(=O)c4cc5ccccc5o4)cc23)C1	–	–
173 to 175	O=S(=O)(Nc1ccc2[nH]c3c(c2c1)CCN(CC(F)(F)F)C3)c1csc2ccccc12	–	–

melting point [°C]	Structure (SMILES)	Ki [1] [nM]	inhibition at 0.1 µM [1] [%]
234 to 235	CC(C)N1CCc2c([nH]c3ccc(NS(=O)(=O)c4c(Cl)nc5sccn45)cc23)C1 [Example 27, 6-Chloro-imidazo[2,1-b]thiazole-5-sulfonic acid (2-isopropyl-2,3,4,9-tetrahydro-1H-β-carbolin-6-yl)-amide]	–	81.8
236 to 237	CN1CCc2c([nH]c3ccc(NS(=O)(=O)c4ccc(N)cc4)cc23)C1	–	–
230 to 232	CN1CCc2c([nH]c3c(NS(=O)(=O)c4c(Cl)nc5sccn45)cccc23)C1	–	–
–	CN1CCc2c([nH]c3ccc(NS(=O)(=O)c4ccc5c(Cl)cccc5c4)cc23)C1 [Example 4, 5-Chloro-naphthalene-2-sulfonic acid (2-methyl-2,3,4,9-tetrahydro-1H-β-carbolin-6-yl)-amide]	–	70.6
225 to 226	CN1CCc2c([nH]c3c(NS(=O)(=O)c4cccc5c(N(C)C)cccc45)cccc23)C1	–	–
230 to 231	CN1CCc2c([nH]c3ccc(NS(=O)(=O)c4ccc5ccc(Cl)cc5c4)cc23)C1	–	–
246 to 247	CN1CCc2c([nH]c3c(NS(=O)(=O)c4cccc5nonc45)cccc23)C1	–	–
244 to 245	CN1CCc2c([nH]c3ccc(NS(=O)(=O)c4cccc5nsnc45)cc23)C1	–	–
229 to 231	CN1CCc2c([nH]c3c(NS(=O)(=O)c4cc5ccccc5o4)cccc23)C1	–	–
252 to 253	CN1CCc2c([nH]c3cccc(NS(=O)(=O)c4c(Cl)nc5sccn45)c23)C1	–	–
242 to 244	O=S(=O)(Nc1ccc2[nH]c3c(c2c1)CCNC3)c1c(Cl)nc2sccn12 [Example 47, 6-chloro-imidazo[2,1-b]thiazole-5-sulfonic acid (2,3,4,9-tetrahydro-1H-β-carbolin-6-yl)-amide]	–	–
164 to 166	O=S(=O)(Nc1ccc2[nH]c3c(c2c1)CCN(CC(F)(F)F)C3)c1ccc2c(Cl)cccc2c1	–	–
257 to 259	CN1CCc2c([nH]c3cc(NS(=O)(=O)c4ccc5c(Cl)cccc5c4)ccc23)C1	–	–
251 to 252	CN1CCc2c([nH]c3c(NS(=O)(=O)c4cccc5c(Cl)cccc45)cccc23)C1	–	–
232 to 234	CC(=O)Nc1ccc(S(=O)(=O)Nc2ccc3[nH]c4c(c3c2)CCN(C)C4)cc1	–	–
199 to 200	CC(=O)Nc1nc(C)c(S(=O)(=O)Nc2ccc3[nH]c4c(c3c2)CCN(C)C4)s1	–	–

Structure (SMILES)	melting point [°C]	Ki [1] [nM]	inhibition at 0.1 µM [1] [%]
CCCN1CCc2c([nH]c3ccc(NS(=O)(=O)c4c(Cl)nc5sccn45)cc23)C1 [Example 26, 6-Chloro-imidazo[2,1-b]thiazole-5-sulfonic acid (2-propyl-2,3,4,9-tetrahydro-1H-β-carbolin-6-yl)-amide]	206 to 207	2	87.9
CN1CCc2c([nH]c3c(NS(=O)(=O)c4csc5ccccc45)cccc23)C1 [Example 45, Benzo[b]thiophene-3-sulfonic acid (2-methyl-2,3,4,9-tetrahydro-1H-β-carbolin-8-yl)-amide]	225 to 226	29.7	87.1
CN1CCc2c([nH]c3ccc(NS(=O)(=O)c4ccc5ccccc5c4)cc23)C1 [Example 12, Naphthalene-2-sulfonic acid (2-methyl-2,3,4,9-tetrahydro-1H-β-carbolin-6-yl)-amide]	244 to 245	15.9	89.7
CCN1CCc2c([nH]c3ccc(NS(=O)(=O)c4c(Cl)nc5sccn45)cc23)C1 [Example 19, 6-Chloro-imidazo[2,1-b]thiazole-5-sulfonic acid (2-ethyl-2,3,4,9-tetrahydro-1H-β-carbolin-6-yl)-amide]	219 to 222	1.1	97
Cc1ccc2sc(S(=O)(=O)Nc3ccc4[nH]c5c(c4c3)CCN(C)C5)cc2c1 [Example 13, 5-Methyl-benzo[b]thiophene-2-sulfonic acid (2-methyl-2,3,4,9-tetrahydro-1H-β-carbolin-6-yl)-amide]	241 to 242	–	71.1
CN1CCc2c([nH]c3ccc(NS(=O)(=O)c4csc5ccccc45)cc23)C1 [Example 2, Benzo[b]thiophene-3-sulfonic acid (2-methyl-2,3,4,9-tetrahydro-1H-β-carbolin-6-yl)-amide]	224 to 226	2.8	79.5
CCN1CCc2c([nH]c3ccc(NS(=O)(=O)c4csc5ccccc45)cc23)C1 [Example 22, Benzo[b]thiophene-3-sulfonic acid (2-ethyl-2,3,4,9-tetrahydro-1H-β-carbolin-6-yl)-amide]	215 to 216	36.7	84.6
CN1CCc2c([nH]c3cc(NS(=O)(=O)c4c(Cl)nc5sccn45)ccc23)C1 [Example 35, 6-Chloro-imidazo[2,1-b]thiazole-5-sulfonic acid (2-methyl-2,3,4,9-tetrahydro-1H-β-carbolin-7-yl)-amide]	225 to 227	8	90
CN1CCc2c([nH]c3c(NS(=O)(=O)c4ccc5ccccc5c4)cccc23)C1 [Example 38, Naphthalene-2-sulfonic acid (2-methyl-2,3,4,9-tetrahydro-1H-β-carbolin-8-yl)-amide]	240 to 242	–	73.5
CN1CCc2c([nH]c3ccc(NS(=O)(=O)c4ccc5cc(Cl)ccc5c4)cc23)C1 [Example 16, 6-Chloro-naphthalene-2-sulfonic acid (2-methyl-2,3,4,9-tetrahydro-1H-β-carbolin-6-yl)-amide]	174 to 175	–	85
CN1CCc2c([nH]c3ccc(NS(=O)(=O)c4c(Cl)nc5sccn45)cc23)C1 [Example 1, 6-chloro-imidazo[2,1-b]thiazole-5-sulfonic acid (2-methyl-2,3,4,9-tetrahydro-1H-β-carbolin-6-yl)-amide]	232 to 233	0.9	80.7
